Starred links: 1 amine or outer side, 2 acyl side, 3 side chain; linkers in the order of their positions; H or OH if unused. Non-standard residues stand in square brackets, D forms with d. Residues, ends and D or L forms follow the SMILES beside them. Groups on a side chain read outwards from the residue. *: point of attachment. Tetrahydroisoquinolin(2-yl) = c1ccc2c(c1)CCN(*)C2; Pro(3S-Et) = CC[C@H]1CCN[C@@H]1C(=O)O; X1 = CCC[C@H](N[*:1])C(=O)C(=O)[*:2]; Pyrazinecarbonyl = O=C(c1cnccn1)*; Hyp = O=C(O)[C@@H]1C[C@@H](O)CN1; CO = O=C([*:1])[*:2]
These compounds were tested against Hepatitis C virus serine protease, NS3/NS4A (Hepatitis C virus, UniProt D2K2A8+A3EZI9) (assay: (§1) Inhibitory activity against hepatitis C virus NS3.4A protease).
Format: protein-complex assay, Hepacivirus hominis

Chain of Hepatitis C virus serine protease, NS3/NS4A (Hepatitis C virus, UniProt D2K2A8+A3EZI9) (D2K2A8 whole entry): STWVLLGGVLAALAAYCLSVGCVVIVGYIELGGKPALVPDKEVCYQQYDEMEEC
Chain of Hepatitis C virus serine protease, NS3/NS4A (Hepatitis C virus, UniProt D2K2A8+A3EZI9) (A3EZI9 whole entry): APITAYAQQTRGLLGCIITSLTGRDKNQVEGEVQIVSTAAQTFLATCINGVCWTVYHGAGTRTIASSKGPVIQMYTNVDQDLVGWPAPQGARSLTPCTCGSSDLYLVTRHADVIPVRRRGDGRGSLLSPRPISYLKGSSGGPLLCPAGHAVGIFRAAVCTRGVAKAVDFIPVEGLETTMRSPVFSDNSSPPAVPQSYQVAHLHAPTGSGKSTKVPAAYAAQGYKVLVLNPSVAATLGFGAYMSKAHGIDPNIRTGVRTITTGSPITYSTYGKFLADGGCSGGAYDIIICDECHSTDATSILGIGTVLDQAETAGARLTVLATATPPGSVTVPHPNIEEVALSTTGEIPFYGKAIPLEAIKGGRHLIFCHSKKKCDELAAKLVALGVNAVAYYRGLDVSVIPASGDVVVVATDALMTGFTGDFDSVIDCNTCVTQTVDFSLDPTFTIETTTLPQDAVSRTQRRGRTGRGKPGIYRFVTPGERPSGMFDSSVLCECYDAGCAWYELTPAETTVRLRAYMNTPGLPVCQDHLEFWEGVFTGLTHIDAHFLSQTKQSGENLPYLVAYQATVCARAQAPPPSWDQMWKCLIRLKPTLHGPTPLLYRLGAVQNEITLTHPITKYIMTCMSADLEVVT

Point of comparison: `CCC[C@H](NC(=O)[C@@H]1[C@@H](C(=O)OC)CCN1C(=O)[C@@H](NC(=O)[C@@H](NC(=O)c1cnccn1)C(C)C)C(C)C)C(=O)C(=O)N[C@@H](Cc1ccccc1)C(=O)O`, Ki 0.18 µM. Against it:
- CC[C@H](NC(=O)[C@@H]1[C@@H](C)CCN1C(=O)[C@@H](NC(=O)[C@@H](NC(=O)c1cnccn1)C(C)C)C(C)C)C(=O)C(=O)N[C@@H](C)c1ccccc1 — 7.8-fold higher, 1.4 µM
- CCC[C@H]1CCN(C(=O)[C@@H](NC(=O)[C@@H](NC(=O)c2cnccn2)C(C)C)C(C)C)[C@@H]1C(=O)N[C@@H](CCC)C(=O)C(=O)N[C@@H](Cc1ccccc1)C(=O)O — 6.7-fold higher, 1.2 µM
- CCC[C@H](NC(=O)[C@@H]1[C@@H](C(C)CC)CCN1C(=O)[C@@H](NC(=O)[C@@H](NC(=O)c1cnccn1)C(C)C)C(C)C)C(=O)C(=O)N[C@@H](Cc1ccccc1)C(=O)O (some centres undefined) — 1.5-fold lower, 0.12 µM
- CC[C@H](NC(=O)[C@@H]1C[C@@H](OCc2ccccc2)CN1C(=O)[C@@H](NC(=O)[C@@H](NC(=O)c1cnccn1)C(C)C)C(C)C)C(=O)C(=O)N[C@@H](C)c1ccccc1 — 5.1-fold higher, 0.92 µM
- C=CC[C@H]1CCN(C(=O)[C@@H](NC(=O)[C@@H](NC(=O)c2cnccn2)C(C)C)C(C)C)[C@@H]1C(=O)N[C@@H](CCC)C(=O)C(=O)N[C@@H](Cc1ccccc1)C(=O)O — within 1.5-fold, 0.21 µM
- CCC[C@H](NC(=O)[C@@H]1C[C@@H](OC(=O)N2CCc3ccccc3C2)CN1C(=O)[C@@H](NC(=O)[C@@H](NC(=O)c1cnccn1)C(C)C)C(C)C)C(=O)C(=O)N[C@@H](Cc1ccccc1)C(=O)O (Pyrazinecarbonyl-VV[Hyp]([CO-Tetrahydroisoquinolin(2-yl)])[X1]F-OH) — 9-fold lower, 0.02 µM
- CCC[C@H](NC(=O)[C@@H]1[C@@H](CC)CCN1C(=O)[C@@H](NC(=O)[C@@H](NC(=O)c1cnccn1)C(C)C)C(C)C)C(=O)C(=O)N[C@@H](Cc1ccccc1)C(=O)O (Pyrazinecarbonyl-VV[Pro(3S-Et)][X1]F-OH) — within 1.5-fold, 0.22 µM

What follows are compounds tested against Hepatitis C virus serine protease, NS3/NS4A (Hepatitis C virus, UniProt A3EZI9+D2K2A8) (assay: as §1).
Format: protein-complex assay, Hepacivirus hominis

Chain of Hepatitis C virus serine protease, NS3/NS4A (Hepatitis C virus, UniProt A3EZI9+D2K2A8) (D2K2A8 whole entry): as the sequence (D2K2A8 whole entry) above
Chain of Hepatitis C virus serine protease, NS3/NS4A (Hepatitis C virus, UniProt A3EZI9+D2K2A8) (A3EZI9 whole entry): as the sequence (A3EZI9 whole entry) above

Work on `CCC[C@H](NC(=O)[C@@H]1CCCN1C(=O)[C@@H](NC(=O)[C@@H](NC(=O)c1cnccn1)C1CCCCC1)C(C)(C)C)C(=O)C(=O)NC1CC1` yielded a Ki of 1.2 µM.

Reference: ChEMBL document CHEMBL1149226, “Inhibitors of hepatitis C virus NS3.4A protease. Part 3: P2 proline variants” (Bioorg Med Chem Lett, 2004)
